Data from patent US20240351997A1, “NOVEL PARP7 INHIBITOR AND USE THEREOF” (SHANGHAI QILU PHARMACEUTICAL RESEARCH AND DEVELOPMENT …, priority 2021, published 2024).

These molecules were tested against PARP7 (Homo sapiens (Human), UniProt Q7Z3E1) (assay: In vitro enzymology experiment of PARP7 (enzymatic inhibition)).
Sequence of PARP7 (Q7Z3E1 whole entry): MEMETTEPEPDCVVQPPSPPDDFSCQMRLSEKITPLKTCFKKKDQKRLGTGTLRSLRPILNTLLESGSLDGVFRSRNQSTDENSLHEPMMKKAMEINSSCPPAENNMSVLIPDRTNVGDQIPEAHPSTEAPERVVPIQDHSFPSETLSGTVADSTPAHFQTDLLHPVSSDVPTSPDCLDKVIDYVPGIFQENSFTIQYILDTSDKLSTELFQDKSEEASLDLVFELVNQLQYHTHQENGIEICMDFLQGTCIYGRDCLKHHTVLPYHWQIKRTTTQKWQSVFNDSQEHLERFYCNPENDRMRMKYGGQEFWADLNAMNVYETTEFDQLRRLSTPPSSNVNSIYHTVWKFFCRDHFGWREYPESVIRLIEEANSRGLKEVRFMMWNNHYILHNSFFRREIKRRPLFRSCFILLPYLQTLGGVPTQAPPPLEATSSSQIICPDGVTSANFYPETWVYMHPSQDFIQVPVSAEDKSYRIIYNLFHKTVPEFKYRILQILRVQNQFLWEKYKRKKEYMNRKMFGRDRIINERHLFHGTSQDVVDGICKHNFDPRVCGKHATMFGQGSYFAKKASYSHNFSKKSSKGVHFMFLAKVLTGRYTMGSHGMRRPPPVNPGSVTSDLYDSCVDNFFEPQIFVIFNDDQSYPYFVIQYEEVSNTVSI
Format: biochemical
In short: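 Histone-coated plate ADP-ribosylation format: compound preincubated 10 min at room temperature with preincubated (25 °C, 10 min) enzyme mixture; incorporated biotin detected by streptavidin-HRP and QuantaRed fluorescence (Ex550/Em620).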
For `Cc1cnc(N2CCN(C(=O)O[C@@H](C)Cc3c[nH]c(=O)c(C(F)(F)F)c3)CC2)nc1` [Example 84, (S)-1-(6-Oxo-5-(trifluoromethyl)-1,6-dihydropyridin-3-yl)propan-2-yl 4-(5-methylpyrimidin-2-yl)piperazine-1-carboxylate], the IC50 was 520 pM. Molecule `C[C@@H](Cc1c[nH]c(=O)c(C(F)(F)F)c1)OC(=O)N1CCN(c2ncc(Cl)cn2)CC1` [Example 85, (S)-1-(6-Oxo-5-(trifluoromethyl)-1,6-dihydropyridin-3-yl)propan-2-yl 4-(5-chloropyrimidin-2-yl)piperazine-1-carboxylate] has an IC50 of 560 pM. In the case of `C[C@@H](Cc1c[nH]c(=O)c(C(F)(F)F)c1)OC(=O)N1CCN(c2ccc(C(F)(F)F)cn2)CC1` [Example 86, (S)-1-(6-Oxo-5-(trifluoromethyl)-1,6-dihydropyridin-3-yl)propan-2-yl 4-(5-(trifluoromethyl)pyridin-2-yl)piperazine-1-carboxylate], the IC50 is reported as 600 pM. With `CNC(=O)c1cnc(N2CCN(C(=O)O[C@@H](C)Cc3c[nH]c(=O)c(C(F)(F)F)c3)CC2)nc1` [Example 87, (S)-1-(6-Oxo-5-(trifluoromethyl)-1,6-dihydropyridin-3-yl)propan-2-yl 4-(5-(methylcarbamoyl)pyrimidin-2-yl)piperazine-1-carboxylate] the IC50 was 500 pM. For `CNC(=O)c1ccc(N2CCN(C(=O)O[C@@H](C)Cc3c[nH]c(=O)c(C(F)(F)F)c3)CC2)cn1` [Example 88, (S)-1-(6-Oxo-5-(trifluoromethyl)-1,6-dihydropyridin-3-yl)propan-2-yl 4-(6-(methylcarbamoyl)pyridin-3-yl)piperazine-1-carboxylate], the IC50 was 1980 pM. `C[C@@H](Cc1c[nH]c(=O)c(C(F)(F)F)c1)OC(=O)N1CCN(C(=O)C2CC2)CC1` [Example 90, (S)-1-(6-Oxo-5-(trifluoromethyl)-1,6-dihydropyridin-3-yl)propan-2-yl 4-(cyclopropanecarbonyl)piperazine-1-carboxylate] showed an IC50 of 1080 pM. `C[C@@H]1CN(c2ncc(C(F)(F)F)cn2)CCN1C(=O)O[C@@H](C)Cc1c[nH]c(=O)c(C(F)(F)F)c1` [Example 91, (S)-1-(6-Oxo-5-(trifluoromethyl)-1,6-dihydropyridin-3-yl)propan-2-yl (R)-2-methyl-4-(5-(trifluoromethyl)pyrimidin-2-yl)piperazine-1-carboxylate] gave an IC50 of 780 pM. `C[C@@H](Cc1c[nH]c(=O)c(C(F)(F)F)c1)OC(=O)N1CCN(c2ncc(C(F)(F)F)cn2)C[C@@H]1C` [Example 92, (S)-1-(6-Oxo-5-(trifluoromethyl)-1,6-dihydropyridin-3-yl)propan-2-yl (S)-2-methyl-4-(5-(trifluoromethyl)pyrimidin-2-yl)piperazine-1-carboxylate] gave an IC50 of 190 pM. Molecule `C[C@@H]1CN(C(=O)O[C@@H](C)Cc2c[nH]c(=O)c(C(F)(F)F)c2)CCN1c1ncc(C(F)(F)F)cn1` [Example 94, (S)-1-(6-Oxo-5-(trifluoromethyl)-1,6-dihydropyridin-3-yl)propan-2-yl (R)-3-methyl-4-(5-(trifluoromethyl)pyrimidin-2-yl)piperazine-1-carboxylate] has an IC50 of 680 pM. With `O=C(Oc1cccc(-c2c[nH]c(=O)c(C(F)(F)F)c2)c1)N1CCN(c2ncc(C(F)(F)F)cn2)CC1` [Example 95, 3-(6-Oxo-5-(trifluoromethyl)-1,6-dihydropyridin-3-yl)phenyl 4-(5-(trifluoromethyl)pyrimidin-2-yl)piperazine-1-carboxylate] the IC50 was 720 pM. Molecule `O=C(Cc1cccc(-c2c[nH]c(=O)c(C(F)(F)F)c2)c1)N1CCN(c2ncc(C(F)(F)F)cn2)CC1` [Example 96, 5-(3-(2-Oxo-2-(4-(5-(trifluoromethyl)pyrimidin-2-yl)piperazin-1-yl)ethyl)phenyl)-3-(trifluoromethyl)pyridin-2(1H)-one] has an IC50 of 1030 pM. `C[C@@H](Cc1c[nH]c(=O)c(C(F)(F)F)c1)OC(=O)N1CCN(c2ccc(C(F)(F)F)cc2)CC1` [Example 97, (S)-1-(6-Oxo-5-(trifluoromethyl)-1,6-dihydropyridin-3-yl)propan-2-yl 4-(4-(trifluoromethyl)phenyl)piperazine-1-carboxylate] gave an IC50 of 860 pM. `C[C@@H](Cc1c[nH]c(=O)c(C(F)(F)F)c1)OC(=O)N1CC=C(c2ccc(C(F)(F)F)cn2)CC1` [Example 98, (S)-1-(6-Oxo-5-(trifluoromethyl)-1,6-dihydropyridin-3-yl)propan-2-yl 5-(trifluoromethyl)-3′,6′-dihydro-[2,4′-bipyridine]-1′(2′H)-carboxylate] showed an IC50 of 830 pM. With `C[C@@H](Cc1c[nH]c(=O)c(C(F)(F)F)c1)OC(=O)N1CCC(c2ccc(C(F)(F)F)cn2)CC1` [Example 99, (S)-1-(6-Oxo-5-(trifluoromethyl)-1,6-dihydropyridin-3-yl)propan-2-yl 4-(5-(trifluoromethyl)pyridin-2-yl)piperidine-1-carboxylate] the IC50 was 560 pM. For `C[C@@H](Cc1c[nH]c(=O)c(C(F)(F)F)c1)OC(=O)N1CCN(c2ncc(C(C)(C)O)cn2)CC1` [Example 100, (S)-1-(6-Oxo-5-(trifluoromethyl)-1,6-dihydropyridin-3-yl)propan-2-yl 4-(5-(2-hydroxypropan-2-yl)pyrimidin-2-yl)piperazine-1-carboxylate], the IC50 was 610 pM. `C[C@@H](Cc1c[nH]c(=O)c(C(F)(F)F)c1)OC(=O)N1CCN(c2ncc(S(C)(=O)=O)cn2)CC1` [Example 101, (S)-1-(6-Oxo-5-(trifluoromethyl)-1,6-dihydropyridin-3-yl)propan-2-yl 4-(5-(methylsulfonyl)pyrimidin-2-yl)piperazine-1-carboxylate] gave an IC50 of 670 pM. For `CC(Cc1c[nH]c(=O)c2ccccc12)OC(=O)N1CCN(c2ncc(C(F)(F)F)cn2)CC1` (stereo not drawn) [Example 102, 1-(1-Oxo-1,2-dihydroisoquinolin-4-yl)propan-2-yl 4-(5-(trifluoromethyl)pyrimidin-2-yl)piperazine-1-carboxylate], the IC50 was 950 pM. With `O=C(OCCc1c[nH]c(=O)c(C(F)(F)F)c1)N1CCN(c2ncc(C(F)(F)F)cn2)[C@@H](CO)C1` [Example 104, 2-(6-Oxo-5-(trifluoromethyl)-1,6-dihydropyridin-3-yl)ethyl (R)-3-(hydroxymethyl)-4-(5-(trifluoromethyl)pyrimidin-2-yl)piperazine-1-carboxylate] the IC50 was 530 pM. `Cc1cnc(N2CCN(C(=O)OCCc3c[nH]c(=O)c(C(F)(F)F)c3)CC2)nc1` [Example 105] was tested, and the IC50 was 920 pM. `O=C(OCCc1c[nH]c(=O)c(C(F)(F)F)c1)N1CCN(c2ccc(C(F)(F)F)cn2)CC1` [Example 106, 2-(6-Oxo-5-(trifluoromethyl)-1,6-dihydropyridin-3-yl)ethyl 4-(5-(trifluoromethyl)pyridin-2-yl)piperazine-1-carboxylate] was tested, and the IC50 was 460 pM. Molecule `O=C(OCCc1c[nH]c(=O)c(C(F)(F)F)c1)N1CCN(c2ncc(C(F)(F)F)cn2)C[C@@H]1CO` [Example 107, 2-(6-Oxo-5-(trifluoromethyl)-1,6-dihydropyridin-3-yl)ethyl (R)-2-(hydroxymethyl)-4-(5-(trifluoromethyl)pyrimidin-2-yl)piperazine-1-carboxylate] has an IC50 of 720 pM. Molecule `C[C@H]1CN(c2ncc(C(F)(F)F)cn2)CCN1C(=O)OCCc1c[nH]c(=O)c(C(F)(F)F)c1` [Example 108, 2-(6-Oxo-5-(trifluoromethyl)-1,6-dihydropyridin-3-yl)ethyl (S)-2-methyl-4-(5-(trifluoromethyl)pyrimidin-2-yl)piperazine-1-carboxylate] has an IC50 of 630 pM. `O=C(OCCc1c[nH]c(=O)c(C(F)(F)F)c1)N1CCN(c2ncc(C(F)(F)F)cn2)C[C@H]1CO` [Example 110, 2-(6-Oxo-5-(trifluoromethyl)-1,6-dihydropyridin-3-yl)ethyl (S)-2-(hydroxymethyl)-4-(5-(trifluoromethyl)pyrimidin-2-yl)piperazine-1-carboxylate] showed an IC50 of 650 pM. With `O=C(OCCc1c[nH]c(=O)c(C(F)(F)F)c1)N1CCN(c2ncc(C(F)(F)F)cn2)[C@H](CO)C1` [Example 111, 2-(6-Oxo-5-(trifluoromethyl)-1,6-dihydropyridin-3-yl)ethyl (S)-3-(hydroxymethyl)-4-(5-(trifluoromethyl)pyrimidin-2-yl)piperazine-1-carboxylate] the IC50 was 610 pM. With `C[C@@H]1CN(C(=O)OCCc2c[nH]c(=O)c(C(F)(F)F)c2)CCN1c1ncc(C(F)(F)F)cn1` [Example 112, 2-(6-Oxo-5-(trifluoromethyl)-1,6-dihydropyridin-3-yl)ethyl (R)-3-methyl-4-(5-(trifluoromethyl)pyrimidin-2-yl)piperazine-1-carboxylate] the IC50 was 620 pM. `C[C@H]1CN(C(=O)OCCc2c[nH]c(=O)c(C(F)(F)F)c2)CCN1c1ncc(C(F)(F)F)cn1` [Example 113, 2-(6-Oxo-5-(trifluoromethyl)-1,6-dihydropyridin-3-yl)ethyl (S)-3-methyl-4-(5-(trifluoromethyl)pyrimidin-2-yl)piperazine-1-carboxylate] showed an IC50 of 650 pM. `CC(C)(O)c1cnc(N2CCN(C(=O)OCCc3c[nH]c(=O)c(C(F)(F)F)c3)CC2)nc1` [Example 114, 2-(6-Oxo-5-(trifluoromethyl)-1,6-dihydropyridin-3-yl)ethyl 4-(5-(2-hydroxypropan-2-yl)pyrimidin-2-yl)piperazine-1-carboxylate] showed an IC50 of 530 pM. `CN(CCc1c[nH]c(=O)c(C(F)(F)F)c1)C(=O)N1CCN(c2ncc(C(F)(F)F)cn2)CC1` [Example 115, N-Methyl-N-(2-(6-oxo-5-(trifluoromethyl)-1,6-dihydropyridin-3-yl)ethyl)-4-(5-(trifluoromethyl)pyrimidin-2-yl)piperazine-1-carboxamide] showed an IC50 of 1000 pM. With `CC[C@@H](Cc1c[nH]c(=O)c(C(F)(F)F)c1)OC(=O)N1CCN(c2ncc(C(F)(F)F)cn2)CC1` [Example 116, (S)-1-(6-Oxo-5-(trifluoromethyl)-1,6-dihydropyridin-3-yl) butan-2-yl 4-(5-(trifluoromethyl)pyrimidin-2-yl)piperazine-1-carboxylate] the IC50 was 810 pM. For `O=C(O[C@@H](CO)Cc1c[nH]c(=O)c(C(F)(F)F)c1)N1CCN(c2ncc(C(F)(F)F)cn2)CC1` [Example 117, (R)-1-Hydroxy-3-(6-oxo-5-(trifluoromethyl)-1,6-dihydropyridin-3-yl)propan-2-yl 4-(5-(trifluoromethyl)pyrimidin-2-yl)piperazine-1-carboxylate], the IC50 was 620 pM.
